The record followed here is US20200347264A1, “COMPOSITIONS FOR CONTAINERS AND OTHER ARTICLES AND METHODS OF USING SAME” (SWIMC LLC, priority 2012, published 2020).

One assay has as its system MCF-7, clone WS8, cells. The experiment in a line: MCF-7 cell proliferation assay of estrogenic activity. It is filed as cell-based, human. To be noted: logarithmic (base 10) Relative Proliferative Effect vs 17-beta estradiol in the MCF-7 assay; values called expected or measured. An excerpt: The MCF-7 assay uses MCF-7, clone WS8, cells to measure whether and to what extent a substance induces cell proliferation via estrogen receptor (ER)-mediated pathways. The method is described in “Test Method Nomination: MCF-7 Cell Proliferation Assay of Estrogenic Activity” submitted for validation by CertiChem, Inc. to the National Toxicology Program Interagency Center for the Evaluation of Alternative Toxicological Methods (NICEATM) on Jan. 19, 2006 (available online at http://iccvam.niehs.nih.gov/methods/endocrine/endodocs/SubmDoc.pdf).
A brief summary of the method of the aforementioned MCF-7 assay is provided below. MCF-7, clone WS8, cells are maintained at 37° C. in RMPI (Roswell Park Memorial Institute medium) containing Phenol Red (e.g., GIBCO Catalog Number 11875119) and supplemented with the indicated additives for routine culture. An aliquot of cells maintained at 37° C. are grown for 2 days in phenol-free media containing 5% charcoal stripped fetal bovine serum in a 25 cm^2 tissue culture flask. Using a robotic dispenser such as an epMotion 5070 unit, MCF-7 cells are then seeded at 400 cells per well in 0.2 ml of hormone-free culture medium in Corning 96-well plates. The cells are adapted for 3 days in the hormone-free culture medium prior to adding the test chemical to be assayed for activity. The media containing the test chemical is replaced daily for 6 days. At the end of the 7-day exposure to the test chemical, the media is removed, the wells are washed once with 0.2 ml of HBSS (Hanks' Balanced Salt Solution), and then assayed to quantify amounts of DNA per well using a micro-plate modification of the Burton diphenylamine (DPA) assay, which is used to calculate the level of cell proliferation.
RPE is the ratio between the EC50 of the test chemical and the EC50 of the control substance 17-beta estradiol times 100, where EC50 is “effective concentration 50^0/” or half-maximum stimulation concentration for cell proliferation measured as total DNA in the MCF-7 assay.
For the compound `CC(C(=O)O)(c1ccc(O)cc1)c1ccc(O)cc1`, the “Log RPE” value is listed as “less than −4”. The same measure, in the same setting: for `CC(C)(C)c1cc(O)c(C(C)(C)C)cc1O` the value was “less than −4”; for `CC(C)(c1cc(Br)c(O)c(Br)c1)c1cc(Br)c(O)c(Br)c1`, −3; for `C[C@]12CC[C@@H]3c4ccc(O)cc4CC[C@H]3[C@@H]1CC[C@@H]2O` [17β-estradiol], 2.00.

Regarding `O=S(=O)(c1ccc(O)cc1)c1ccc(O)cc1` [Bisphenol S], the “Log RPE” value is listed as −2.

For another assay, the target named is T1, human estrogen receptor (Homo sapiens, UniProt P03372).
T1 sequence (P03372 1-595): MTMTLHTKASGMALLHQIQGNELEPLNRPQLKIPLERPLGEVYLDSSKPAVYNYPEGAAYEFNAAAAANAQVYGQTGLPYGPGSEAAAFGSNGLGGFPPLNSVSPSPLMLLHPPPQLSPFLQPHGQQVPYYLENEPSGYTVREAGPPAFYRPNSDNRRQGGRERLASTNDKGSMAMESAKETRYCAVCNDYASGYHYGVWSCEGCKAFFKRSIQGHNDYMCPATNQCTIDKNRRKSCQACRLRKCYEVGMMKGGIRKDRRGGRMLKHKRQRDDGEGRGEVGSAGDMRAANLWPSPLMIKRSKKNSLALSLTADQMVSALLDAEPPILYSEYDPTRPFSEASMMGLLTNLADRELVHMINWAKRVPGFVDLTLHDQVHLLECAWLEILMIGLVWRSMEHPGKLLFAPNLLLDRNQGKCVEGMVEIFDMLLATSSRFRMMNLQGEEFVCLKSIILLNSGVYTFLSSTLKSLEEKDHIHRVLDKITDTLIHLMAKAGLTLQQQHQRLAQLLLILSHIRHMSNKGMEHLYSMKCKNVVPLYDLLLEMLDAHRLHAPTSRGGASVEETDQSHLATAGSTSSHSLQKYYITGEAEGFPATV
The assay can be described thus: in vitro assay of estrogenic activity correlated to the MCF-7 assay. To be noted: suitable in vitro assay correlated to MCF-7 assay; assay not named for hydroquinone. It is filed as cell-based.
As to `CC(C)(C)c1cc(O)c(C(C)(C)C)cc1O`, the estrogenic activity entry is listed as “does not exhibit appreciable estrogenic activity”. For the compound `Oc1ccc(O)cc1` [hydroquinone], the estrogenic activity result was “appreciably non-estrogenic”.
